The source of these data is patent publication US8110573B2, “Pyrazole compounds that modulate the activity of CDK, GSK and aurora kinases” (Astex Therapeutics Limited, priority 2004, dated 2012).

The structures appear in SMILES notation. Where a name gives a salt, the structure may show the parent alone.

One data set deals with CDK2/CyclinA (Homo sapiens, UniProt P24941). Briefly: Activated CDK2/CyclinA kinase inhibitory activity assay. The format is biochemical. The protocol: (§1) The reaction is allowed to proceed for 2 to 4 hours before being stopped with an excess of ortho-phosphoric acid (5 μl at 2%). γ^33P-ATP which remains unincorporated into the histone H1 is separated from phosphorylated histone H1 on a Millipore MAPH filter plate. The wells of the MAPH plate are wetted with 0.5% orthophosphoric acid, and then the results of the reaction are filtered with a Millipore vacuum filtration unit through the wells. Following filtration, the residue is washed twice with 200 μl of 0.5% orthophosphoric acid. Once the filters have dried, 20 μl of Microscint 20 scintillant is added, and then counted on a Packard Topcount for 30 seconds.

Another data set deals with T1, CDK1/CyclinB (Homo sapiens, UniProt P06493).
T1 construct: purchased Upstate Discovery
T1 sequence (P06493 whole entry): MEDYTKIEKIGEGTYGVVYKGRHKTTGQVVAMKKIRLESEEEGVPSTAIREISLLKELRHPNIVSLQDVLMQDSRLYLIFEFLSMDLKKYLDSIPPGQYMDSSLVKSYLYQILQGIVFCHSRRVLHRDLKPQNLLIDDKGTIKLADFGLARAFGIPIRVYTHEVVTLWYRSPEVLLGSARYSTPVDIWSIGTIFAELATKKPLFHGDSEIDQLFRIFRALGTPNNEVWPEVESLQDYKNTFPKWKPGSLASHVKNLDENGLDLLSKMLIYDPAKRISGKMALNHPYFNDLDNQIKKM
T1 sequence (P14635 whole entry partner): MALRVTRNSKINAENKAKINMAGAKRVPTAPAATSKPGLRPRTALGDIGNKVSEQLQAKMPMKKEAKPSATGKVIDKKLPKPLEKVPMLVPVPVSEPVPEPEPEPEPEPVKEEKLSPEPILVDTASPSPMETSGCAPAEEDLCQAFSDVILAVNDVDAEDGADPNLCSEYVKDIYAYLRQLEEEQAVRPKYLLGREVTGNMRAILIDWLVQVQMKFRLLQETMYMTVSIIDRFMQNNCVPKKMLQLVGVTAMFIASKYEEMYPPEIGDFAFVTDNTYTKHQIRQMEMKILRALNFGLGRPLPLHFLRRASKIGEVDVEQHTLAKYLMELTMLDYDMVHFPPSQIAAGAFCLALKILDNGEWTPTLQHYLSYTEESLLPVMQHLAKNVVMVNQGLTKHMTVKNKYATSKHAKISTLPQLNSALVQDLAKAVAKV
Put plainly: Activated CDK1/CyclinB kinase inhibitory activity assay. It is filed as biochemical. How it is done: as §1
CDK1/CyclinB assay is identical to the CDK2/CyclinA above except that CDK1/CyclinB (Upstate Discovery) is used and the enzyme is diluted to 6.25 nM.

A short description of data set [1]: Salt stability at 40° C. 75% RH followed by XRPD. The conditions noted are these: 40° C. and 75% RH over the period of 1-2 month. The format is physicochemical.
Procedure: Approximately 15 mg of samples for the stability study were gently ground by marble mortar and transferred to a Petri dish in a thin layer. Samples were then placed in sealed containers containing saturated NaCl solution with an excess of undissolved NaCl. […] Samples were analysed by X-ray powder diffraction (XRPD) in regular intervals. Samples for XRPD data collection were loaded into crystallographic capillary (from Hampton Research, made of Quartz, diameter=0.4 mm). […] 2D Images were collected while spinning φ axis with a detector to crystal distance of 250 mm. Data collection was controlled by CrystalClear software and 2D images were converted to 1D plot (2θ vs. Intensity) by Datasqueeze (intensity averaged over the azimuthal angle 0<χ<360° for 2θ range 3-30° in 0.01° steps).
A further data set is described as follows: physchem. The conditions noted are these: water, thermodynamic from solid.
The next data set deals with HCT-116 cell line. Briefly: Anti-proliferative activity (Alamar Blue assay). The format is cell-based, human. The protocol: The anti-proliferative activities of compounds of the invention can be determined by measuring the ability of the compounds to inhibition of cell growth in a number of cell lines. Inhibition of cell growth is measured using the Alamar Blue assay (Nociari, M. M, Shalev, A., Benias, P., Russo, C. Journal of Immunological Methods 1998, 213, 157-167). The method is based on the ability of viable cells to reduce resazurin to its fluorescent product resorufin. For each proliferation assay cells are plated onto 96 well plates and allowed to recover for 16 hours prior to the addition of inhibitor compounds for a further 72 hours. At the end of the incubation period 10% (v/v) Alamar Blue is added and incubated for a further 6 hours prior to determination of fluorescent product at […]. In the case of the non-proliferating cell assay cells are maintained at confluence for 96 hour prior to the addition of inhibitor compounds for a further 72 hours. The number of viable cells is determined by Alamar Blue assay as before. In addition, any morphological changes are recorded. Cell lines can be obtained from the ECACC (European Collection of cell Cultures).
In particular, compounds of the invention were tested against the HCT-116 cell line (ECACC Reference: 91091005) derived from human colon carcinoma.
(In general: Resazurin is reduced to fluorescent resorufin, in cell work by metabolically active cells.)

Data set [2] in a line: Gravimetric vapour sorption (GVS). The format is physicochemical. Particulars: 0-90% RH cycle, 25° C. The protocol: The sample size was ca. 10-25 mg. […] The sample was loaded and unloaded at room humidity and temperature (ca. 40% RH, 25° C.) and analysed afterwards by XRPD (using a Bruker AXS C2 GADDS system).

In the case of `COc1cc2nc(-c3n[nH]cc3NC(=O)c3ccoc3CN(C)C)[nH]c2cc1OC` [Example 20], the IC50 at CDK2/CyclinA is < 1000 nM; at CDK1/CyclinB, < 10000 nM.

As to `COc1cc2nc(-c3n[nH]cc3NC(=O)c3cc(Cl)cc(N4CCN(C)CC4)c3)[nH]c2cc1OC` [Example 18, 3-chloro-N-(5,6-dimethoxy-1H-benzoimidazol-2-yl)-1H-pyrazol-4-yl-5-(4-methyl-piperazin-1-yl)-benzamide], the IC50 at CDK2/CyclinA was < 1000 nM.

Regarding `O=C(Nc1ccc(F)cc1)Nc1c[nH]nc1-c1nc2cc(CN3CCOCC3)ccc2[nH]1` [Example 44, 1-(4-fluorophenyl)-N-[3-(5-morpholin-4-ylmethyl-1H-benzimidazol-2-yl)-1H-pyrazol-4-yl]-urea], at CDK2/CyclinA, the half-maximal inhibitory concentration (IC50) is < 10000 nM.

With `O=C(Nc1c[nH]nc1-c1nc2cc(CN3CCOCC3)ccc2[nH]1)NC1CCCCC1` [Example 51], the IC50 at CDK2/CyclinA and on CDK1/CyclinB was < 10000 nM each time.

In the case of `O=C(Nc1cc(F)ccc1F)Nc1c[nH]nc1-c1nc2cc(CN3CCOCC3)ccc2[nH]1` [Example 47], the IC50 on CDK2/CyclinA and on CDK1/CyclinB was < 1000 nM in each case.

With `O=C(Nc1cc(F)cc(F)c1)Nc1c[nH]nc1-c1nc2cc(CN3CCOCC3)ccc2[nH]1` [Example 53], the IC50 against CDK2/CyclinA and at CDK1/CyclinB was < 10000 nM throughout.

Consider `O=C(Nc1c[nH]nc1-c1nc2cc(CN3CCOCC3)ccc2[nH]1)NN1CCOCC1` [Example 32], for which the IC50 against CDK2/CyclinA is < 1000 nM; on CDK1/CyclinB it was < 10000 nM.

With `CC(C)(C)NC(=O)Nc1c[nH]nc1-c1nc2cc(CN3CCOCC3)ccc2[nH]1` [Example 45], the IC50 at CDK2/CyclinA and on CDK1/CyclinB was < 10000 nM throughout.

For the compound `O=C(Nc1c[nH]nc1-c1nc2cc(CN3CCOCC3)ccc2[nH]1)Nc1c(F)cc(F)cc1F` [Example 54], the IC50 against CDK2/CyclinA and against CDK1/CyclinB was < 1000 nM each time.

As for `COc1ccc(C#N)cc1C(=O)Nc1c[nH]nc1-c1nc2cc(CN3CCOCC3)ccc2[nH]1` [Example 1, 5-cyano-2-methoxy-N-[3-(5-morpholin-4-ylmethyl-1H-benzoimidazol-2-yl)-1H-pyrazol-4-yl]-benzamide], the IC50 against CDK2/CyclinA and against CDK1/CyclinB was < 1000 nM throughout.

On to `O=C(CC1CC1)Nc1c[nH]nc1-c1nc2cc(CN3CCOCC3)ccc2[nH]1` [Example 10], for which the IC50 against CDK2/CyclinA and against CDK1/CyclinB was < 1000 nM each time.

In the case of `CN(C)NC(=O)Nc1c[nH]nc1-c1nc2cc(CN3CCOCC3)ccc2[nH]1` [Example 31], the results for the IC50 against CDK2/CyclinA and at CDK1/CyclinB were < 1000 nM and < 10000 nM, respectively.

Turning to `O.O.O=C(Nc1c[nH]nc1-c1nc2cc(CN3CCOCC3)ccc2[nH]1)NC1CC1` [dihydrate free base (FB2), 1-cyclopropyl-3-[3-(5-morpholin-4-ylmethyl-1H-benzoimidazol-2-yl)-1H-pyrazol-4-yl]-urea free base dihydrate], in data set [1], the “change of XRPD pattern on storage” value is given as “do not change”.

For the compound `O=C(Nc1c[nH]nc1-c1nc2cc(CN3CCOCC3)ccc2[nH]1)NC1CC1` [Hydrochloride, 1-cyclopropyl-3-[3-(5-morpholin-4-ylmethyl-1H-benzoimidazol-2-yl)-1H-pyrazol-4-yl]-urea], the solubility at 16 h in “physchem” was < 25 mg/mL.

Turning to `O=C(Nc1c[nH]nc1-c1nc2cc(CN3CCOCC3)ccc2[nH]1)NC1CC1` [Example 24, 1-cyclopropyl-3-[3-(5-morpholin-4-ylmethyl-1H-benzoimidazol-2-yl)-1H-pyrazol-4-yl]-urea], in the data set on HCT-116 cell line (HCT-116 cell line), the “minimum concentration at which polyploidy or multinucleation is observed” value was “less than 100 nM”. Further, the IC50 with HCT-116 cell line (Homo sapiens, HCT-116, 72 hours compound, Alamar Blue, read-out: IC50, inhibition of cell growth, HCT-116 cell line) was < 1000 nM; on CDK1/CyclinB, < 10000 nM. For the same compound, in data set [1], the “change of XRPD pattern on storage” value is “do not change”.

Regarding `O=C(Nc1c[nH]nc1-c1nc2cc(CN3CCOCC3)ccc2[nH]1)NN1CCCC1` [Example 30], the IC50 against CDK2/CyclinA was < 1000 nM.

For `O=C(Nc1c[nH]nc1-c1nc2cc(CN3CCOCC3)ccc2[nH]1)C1CCCO1` (stereo not drawn) [Example 11], the IC50 at CDK2/CyclinA and on CDK1/CyclinB was < 1000 nM each time.

As for `COc1ccc(Cl)cc1C(=O)Nc1c[nH]nc1-c1nc2cc(CN3CCN(C)CC3)ccc2[nH]1` [Example 22, 5-chloro-2-methoxy-N-{3-[5-(4-methyl-piperazin-1-ylmethyl)-1H-benzoimidazol-2-yl]-1H-pyrazol-4-yl}-benzamide], the IC50 at CDK2/CyclinA and at CDK1/CyclinB was < 1000 nM each time.

For `O=C(NCc1ccco1)Nc1c[nH]nc1-c1nc2cc(CN3CCOCC3)ccc2[nH]1` [Example 52], the IC50 on CDK1/CyclinB is < 10000 nM.

As to `O=C(Nc1ccc(F)cc1F)Nc1c[nH]nc1-c1nc2cc(CN3CCOCC3)ccc2[nH]1` [Example 46], the values for the 50% inhibitory concentration (IC50) against CDK2/CyclinA and against CDK1/CyclinB were < 1000 nM and < 10000 nM, respectively.

On to `C[C@H](O)C(=O)O.O=C(Nc1c[nH]nc1-c1nc2cc(CN3CCOCC3)ccc2[nH]1)NC1CC1` [L-lactate salt, 1-cyclopropyl-3-[3-(5-morpholin-4-ylmethyl-1H-benzoimidazol-2-yl)-1H-pyrazol-4-yl]-urea, L-lactate salt], for which the “hygroscopic behaviour (GVS isotherm)” value in data set [2] is “does not display hygroscopic behaviour and does not form a hydrate”. In addition, the “change of XRPD pattern on storage” value in data set [1] is given as “do not change”.

`O=C(Nc1c[nH]nc1-c1nc2cc(CN3CCOCC3)ccc2[nH]1)N1CCc2ccccc21` [Example 29]: the IC50 against CDK1/CyclinB is < 10000 nM.

As a reminder, the IC50 is the midpoint of a concentration-inhibition curve. As usually defined, the solubility is the concentration that dissolves in the medium under given conditions. A higher solubility goes with a readily soluble substance.
